# Test results as given in patent publication US4605643A, “Ovine GRF” (The Salk Institute for Biological Studies, priority 1984, dated 1986).
# Test system: rat pituitary cells
# Experiment: in vitro release of growth hormone from cultured rat pituitary cells (ir GH by radioimmunoassay), side-by-side with hGRF(1-44)-NH2
# Assay type: cell-based
# Description: To determine the effectiveness of the peptide to promote the release of growth hormone, in vitro assays are carried out using synthetic hGRF(1-44)-NH2 in side-by-side comparison with equimolar concentrations of the extracted and purified oGRF(1-44) of Example II. hGRF thus serves as a GRF Reference Standard having a known effectiveness to promote the release of growth hormone from rat pituitary cells. Cultures are used which include cells of rat pituitary glands removed some four to five days previously. Both cultures of a defined standard medium and cultures which are considered optimal for the secretion of growth hormone are used for the comparative testing, in the general manner described in Brazeau, et al. Regulatory Peptides, 1, 255, 1981. Incubation with the substance to be tested is carried out for 3 to 4 hours, and aliquots of the culture medium are removed and processed to measure their contents in immunoreactive GH(ir GH) by a well-characterized radioimmunoassay.
# [1] = equimolar ratios, incubation 3 to 4 hours, ir GH in culture medium by RIA
# [2] = multiple doses factorial design experiments
structure (smiles),measurement,setting,value
CC[C@H](C)[C@H](NC(=O)[C@H](C)NC(=O)[C@H](CC(=O)O)NC(=O)[C@H](C)NC(=O)[C@@H](N)Cc1ccc(O)cc1)C(=O)N[C@@H](Cc1ccccc1)C(=O)N[C@H](C(=O)N[C@@H](CC(N)=O)C(=O)N[C@@H](CO)C(=O)N[C@@H](Cc1ccc(O)cc1)C(=O)N[C@@H](CCCNC(=N)N)C(=O)N[C@@H](CCCCN)C(=O)N[C@H](C(=O)N[C@@H](CC(C)C)C(=O)NCC(=O)N[C@@H](CCC(N)=O)C(=O)N[C@@H](CC(C)C)C(=O)N[C@@H](CO)C(=O)N[C@@H](C)C(=O)N[C@@H](CCCNC(=N)N)C(=O)N[C@@H](CCCCN)C(=O)N[C@@H](CC(C)C)C(=O)N[C@@H](CC(C)C)C(=O)N[C@@H](CCC(N)=O)C(=O)N[C@@H](CC(=O)O)C(=O)N[C@H](C(=O)N[C@@H](CCSC)C(=O)N[C@@H](CC(N)=O)C(=O)N[C@@H](CCCNC(=N)N)C(=O)N[C@@H](CCC(N)=O)C(=O)N[C@@H](CCC(N)=O)C(=O)NCC(=O)N[C@@H](CCC(=O)O)C(=O)N[C@@H](CCCNC(=N)N)C(=O)N[C@@H](CC(N)=O)C(=O)N[C@@H](CCC(N)=O)C(=O)N[C@@H](CCC(=O)O)C(=O)N[C@@H](CCC(N)=O)C(=O)NCC(=O)N[C@@H](C)C(=O)N[C@@H](CCCCN)C(=O)N[C@H](C(=O)N[C@@H](CCCNC(=N)N)C(=O)N[C@@H](CC(C)C)C(N)=O)C(C)C)[C@@H](C)CC)[C@@H](C)CC)[C@@H](C)O [oGRF(1-44)],intrinsic biological activity (release of growth hormone) compared with synthetic hGRF(1-44)-NH2,[1],full intrinsic biological activity of the synthetic peptide
same,potency (release of growth hormone) compared with synthetic hGRF(1-44)-NH2,[1],close to the same potency
same,intrinsic activity compared with hGRF(1-44)-NH2,[2],about the same intrinsic activity as hGRF(1-44)-NH2
same,specific activity relative to hGRF(1-44)-NH2,[2],about 70 % of hGRF(1-44)-NH2
